Among the data in paper PMC4247381, “Control of somatic membrane potential in nociceptive neurons and its implications for peripheral nociceptive transmission” (Pain, 2014) are EC50 values, retold here.

Each structure is given as a SMILES string. Read-outs that look alike come from different tables or passages of the source.

The target of one assay is T1, Kv7.2/Kv7.3 (Homo sapiens, UniProt O43525+O43526).
T1 construct: gene KCNQ2; with Kv7.3 (KCNQ3)
The assay is described as follows: Rb+ efflux assay and whole-cell patch clamp in CHO cells expressing Kv7.[…]/Kv7.[…] (activator). It is filed as cell-based.

A further assay concerns the target T2, Cav3.2 (Homo sapiens, UniProt O95180).
T2 construct: gene CACNA1H
The assay is described as follows: whole-cell patch clamp of recombinant human Cav3.[…] in HEK293 cells (enhancer). The format is cell-based.

T1 sequence (O43526 whole entry): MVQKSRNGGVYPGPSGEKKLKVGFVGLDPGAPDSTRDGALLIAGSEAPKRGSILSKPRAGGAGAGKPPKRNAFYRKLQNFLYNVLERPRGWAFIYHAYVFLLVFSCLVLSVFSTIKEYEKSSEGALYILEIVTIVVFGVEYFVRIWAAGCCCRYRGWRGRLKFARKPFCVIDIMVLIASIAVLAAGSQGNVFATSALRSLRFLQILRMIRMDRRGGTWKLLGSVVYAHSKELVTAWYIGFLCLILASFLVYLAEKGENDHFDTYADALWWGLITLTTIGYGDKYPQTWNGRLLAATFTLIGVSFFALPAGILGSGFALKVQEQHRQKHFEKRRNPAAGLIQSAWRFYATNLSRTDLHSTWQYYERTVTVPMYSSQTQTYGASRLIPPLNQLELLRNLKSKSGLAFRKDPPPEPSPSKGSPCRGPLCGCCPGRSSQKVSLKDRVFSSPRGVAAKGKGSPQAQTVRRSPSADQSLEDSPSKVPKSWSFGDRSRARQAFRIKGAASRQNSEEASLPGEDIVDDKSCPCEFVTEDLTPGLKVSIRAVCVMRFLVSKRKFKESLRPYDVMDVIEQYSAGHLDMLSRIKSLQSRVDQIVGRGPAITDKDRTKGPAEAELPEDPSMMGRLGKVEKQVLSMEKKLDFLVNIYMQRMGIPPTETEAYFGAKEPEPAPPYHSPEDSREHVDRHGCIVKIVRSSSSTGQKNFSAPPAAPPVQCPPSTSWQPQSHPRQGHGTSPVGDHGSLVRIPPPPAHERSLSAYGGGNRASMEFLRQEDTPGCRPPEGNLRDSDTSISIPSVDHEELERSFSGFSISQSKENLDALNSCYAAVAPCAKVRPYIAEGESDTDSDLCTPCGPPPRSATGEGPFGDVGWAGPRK
T1 sequence (O43525 whole entry): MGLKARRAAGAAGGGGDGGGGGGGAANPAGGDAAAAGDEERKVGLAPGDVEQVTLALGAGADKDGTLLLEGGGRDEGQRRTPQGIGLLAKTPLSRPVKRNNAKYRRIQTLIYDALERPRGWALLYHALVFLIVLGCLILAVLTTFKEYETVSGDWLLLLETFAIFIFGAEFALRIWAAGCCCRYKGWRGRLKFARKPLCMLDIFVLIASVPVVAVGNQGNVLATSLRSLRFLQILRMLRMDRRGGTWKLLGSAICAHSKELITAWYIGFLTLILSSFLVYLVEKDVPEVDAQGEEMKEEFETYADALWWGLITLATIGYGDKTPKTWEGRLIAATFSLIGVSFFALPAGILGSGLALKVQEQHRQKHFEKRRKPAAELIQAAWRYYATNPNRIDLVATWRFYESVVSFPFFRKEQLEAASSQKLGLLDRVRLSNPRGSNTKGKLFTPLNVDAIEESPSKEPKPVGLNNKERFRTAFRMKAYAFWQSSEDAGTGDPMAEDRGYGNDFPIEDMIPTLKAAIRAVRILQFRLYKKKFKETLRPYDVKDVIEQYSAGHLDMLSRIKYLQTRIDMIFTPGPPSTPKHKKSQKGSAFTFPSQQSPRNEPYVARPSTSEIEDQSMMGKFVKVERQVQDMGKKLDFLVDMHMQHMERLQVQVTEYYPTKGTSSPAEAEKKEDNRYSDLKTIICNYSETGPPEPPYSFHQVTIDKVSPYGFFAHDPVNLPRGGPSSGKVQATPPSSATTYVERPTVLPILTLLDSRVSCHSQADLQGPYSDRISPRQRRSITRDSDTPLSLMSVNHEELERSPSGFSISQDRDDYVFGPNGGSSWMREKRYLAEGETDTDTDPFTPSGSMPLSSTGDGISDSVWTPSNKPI
T2 sequence (O95180 whole entry): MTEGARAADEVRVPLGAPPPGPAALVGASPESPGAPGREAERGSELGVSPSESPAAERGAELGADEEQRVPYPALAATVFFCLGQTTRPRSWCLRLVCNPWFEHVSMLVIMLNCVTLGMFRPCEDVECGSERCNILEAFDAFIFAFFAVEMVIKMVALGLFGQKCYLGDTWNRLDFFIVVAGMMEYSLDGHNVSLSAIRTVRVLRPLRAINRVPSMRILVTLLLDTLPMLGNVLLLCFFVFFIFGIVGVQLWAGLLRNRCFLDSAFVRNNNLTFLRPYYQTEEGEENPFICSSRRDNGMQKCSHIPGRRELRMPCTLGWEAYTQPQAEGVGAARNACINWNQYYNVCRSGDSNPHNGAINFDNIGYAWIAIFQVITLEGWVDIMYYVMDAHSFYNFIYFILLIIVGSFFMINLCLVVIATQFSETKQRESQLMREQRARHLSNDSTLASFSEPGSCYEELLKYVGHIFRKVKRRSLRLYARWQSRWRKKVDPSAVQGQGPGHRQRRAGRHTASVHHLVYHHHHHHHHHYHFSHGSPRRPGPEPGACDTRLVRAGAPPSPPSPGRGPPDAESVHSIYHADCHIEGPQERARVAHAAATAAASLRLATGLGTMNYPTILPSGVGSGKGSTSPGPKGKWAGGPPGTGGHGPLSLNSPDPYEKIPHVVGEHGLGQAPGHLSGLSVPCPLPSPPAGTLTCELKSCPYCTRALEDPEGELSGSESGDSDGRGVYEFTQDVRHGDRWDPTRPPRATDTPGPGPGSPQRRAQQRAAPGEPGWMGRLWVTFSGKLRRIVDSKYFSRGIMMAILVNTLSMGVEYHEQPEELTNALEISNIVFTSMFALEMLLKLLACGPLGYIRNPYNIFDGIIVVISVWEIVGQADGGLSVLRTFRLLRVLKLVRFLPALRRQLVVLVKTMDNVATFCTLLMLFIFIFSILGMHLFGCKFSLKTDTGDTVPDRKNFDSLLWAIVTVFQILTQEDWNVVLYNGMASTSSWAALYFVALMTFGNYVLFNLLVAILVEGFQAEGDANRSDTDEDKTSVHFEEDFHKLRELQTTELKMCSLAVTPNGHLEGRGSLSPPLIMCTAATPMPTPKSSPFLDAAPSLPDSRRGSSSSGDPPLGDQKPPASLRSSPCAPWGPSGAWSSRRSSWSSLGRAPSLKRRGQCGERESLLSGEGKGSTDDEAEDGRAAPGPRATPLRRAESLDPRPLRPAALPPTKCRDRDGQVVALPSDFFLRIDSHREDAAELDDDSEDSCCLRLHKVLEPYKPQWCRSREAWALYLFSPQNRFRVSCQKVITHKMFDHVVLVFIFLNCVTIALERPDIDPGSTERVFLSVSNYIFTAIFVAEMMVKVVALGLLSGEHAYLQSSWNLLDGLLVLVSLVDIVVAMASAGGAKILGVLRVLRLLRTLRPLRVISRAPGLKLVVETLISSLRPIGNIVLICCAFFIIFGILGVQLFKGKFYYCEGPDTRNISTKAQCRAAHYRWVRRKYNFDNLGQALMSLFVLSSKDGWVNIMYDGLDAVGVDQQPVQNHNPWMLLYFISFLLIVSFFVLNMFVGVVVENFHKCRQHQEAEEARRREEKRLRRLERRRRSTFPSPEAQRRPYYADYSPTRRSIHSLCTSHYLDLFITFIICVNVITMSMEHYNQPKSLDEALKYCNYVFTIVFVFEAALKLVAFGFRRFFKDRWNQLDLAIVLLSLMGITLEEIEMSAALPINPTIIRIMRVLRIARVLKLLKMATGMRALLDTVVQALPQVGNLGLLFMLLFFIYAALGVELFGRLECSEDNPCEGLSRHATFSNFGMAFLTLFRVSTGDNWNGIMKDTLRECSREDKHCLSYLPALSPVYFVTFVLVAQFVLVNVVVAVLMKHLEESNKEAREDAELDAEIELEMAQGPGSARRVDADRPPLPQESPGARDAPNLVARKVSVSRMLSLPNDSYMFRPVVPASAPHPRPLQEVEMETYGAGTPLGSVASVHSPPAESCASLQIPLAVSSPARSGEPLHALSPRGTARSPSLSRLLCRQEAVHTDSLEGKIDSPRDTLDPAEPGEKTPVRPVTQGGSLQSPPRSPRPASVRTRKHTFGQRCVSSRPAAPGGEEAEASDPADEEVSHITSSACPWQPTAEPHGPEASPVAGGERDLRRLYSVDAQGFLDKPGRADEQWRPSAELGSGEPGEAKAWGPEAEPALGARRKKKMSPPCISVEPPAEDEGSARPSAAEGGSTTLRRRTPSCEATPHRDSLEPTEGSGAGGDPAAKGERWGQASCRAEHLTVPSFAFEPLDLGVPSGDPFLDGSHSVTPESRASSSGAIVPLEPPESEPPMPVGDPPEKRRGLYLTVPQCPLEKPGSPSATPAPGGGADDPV

With `CCOC(=O)Nc1ccc(NCc2ccc(F)cc2)cc1N` [RTG, Retigabine], it took 700 ± 90 nM to reach a half-maximal effect at Kv7.2/Kv7.3 (EC50). On to `Oc1c(Cl)cc(Cl)cc1Sc1cc(Cl)cc(Cl)c1O` [BITH, Bithionol], for which the EC50 on Kv7.2/Kv7.3 (read-out: EC50) was 4900 ± 1080 nM.

For the compound `O=C1N=C2C=CC=CN2C12Cc1ccccc1C2` [ST101, spiro[imidazo[1,2-a]pyridine-3,2-indan]-2(3H)-one], the EC50 on Cav3.2 amounted to 0.12 ± 0.04 nM.
